Measured values from ChEMBL document CHEMBL4825664, “17-Hydroxybrevianamide N and Its N1-Methyl Derivative, Quinazolinones from a Soft-Coral-Derived Aspergillus sp. Fungus: 13S Enantiomers as the True Natural Products” (J Nat Prod, 2021).
Active and inactive are the calls of the source.

Assays:
Assay type in all cases: functional, organism-based
Escherichia coli = assay: Antibacterial activity against Escherichia coli at 20 ug/ml; settings: dose 20.0 µg/ml
Staphylococcus aureus = assay: Antibacterial activity against Staphylococcus aureus at 20 ug/ml; settings: dose 20.0 µg/ml
Influenza A virus = assay: Antiviral activity against Influenza virus H1N1 at 100 uM
Pseudomonas aeruginosa = assay: Antibacterial activity against Pseudomonas aeruginosa at 20 ug/ml; settings: dose 20.0 µg/ml
Candida albicans = assay: Antifungal activity against Candida albicans at 20 ug/ml; settings: dose 20.0 µg/ml

Measured: Activity

O=C1NC(=O)[C@H](Cc2ccccc2O)n2c1nc1ccccc1c2=O
inactive: Escherichia coli | Staphylococcus aureus | Influenza A virus | Pseudomonas aeruginosa | Candida albicans

CN1C(=O)c2nc3ccccc3c(=O)n2[C@@H](Cc2ccccc2O)C1=O
inactive: Escherichia coli | Staphylococcus aureus | Influenza A virus | Pseudomonas aeruginosa | Candida albicans

O=C1NC(=O)[C@@H](Cc2ccccc2O)n2c1nc1ccccc1c2=O
inactive: Escherichia coli | Staphylococcus aureus | Influenza A virus | Pseudomonas aeruginosa | Candida albicans

CN1C(=O)c2nc3ccccc3c(=O)n2[C@H](Cc2ccccc2O)C1=O
inactive: Escherichia coli | Staphylococcus aureus | Influenza A virus | Pseudomonas aeruginosa | Candida albicans
